Experimental data reported in patent US20240301408A1, “MICRORNA 195 COMPOSITIONS AND METHODS FOR TREATING COGNITIVE IMPAIRMENT” (UNITED STATES GOVERNMENT AS REPRESENTED BY THE DEPARTMENT …, priority 2021, published 2024).

Experiments:
pTau, total Tau = experiment: brain pTau and total Tau in EFAD mice after miR-195-5p over-expression; format: in vivo; settings: ApoE4+/+ FAD mouse hippocampus
Method: (§1) Stereotaxic injection and behavior studies. Eight to nine weeks old male and female ApoE3^+/+ and ApoE4^+/+ KI mice without 5×FAD background (N=19-23/group), or with 5×FAD background (N=15-17/group) were placed in the stereotaxic apparatus with AAV2 or scramble virus administered into the dorsal CA1 regions of bilateral hippocampal brain regions using pressure injection (Labonte B et al., Nat Med 2017, and Passini M A et al., The Journal of neuroscience 2006). Injection volumes (0.5-2.0 μl) were delivered over 10 min to avoid tissue damage. […]
(§2) Brain and neuronal sample preparation and biochemical analysis. […] Levels of Aβ42, Aβ40, pTau, Tau and ApoE were determined using high-sensitive ELISA kits. […]
(§3) Statistical analysis. […] Levels of miR-195-5p and miR-374 were normalized to U6 and RNU6B (internal controls) while synj1 mRNA normalized to GAPDH and 18s, and then expressed as Log2fold of changes when compared to controls. Levels of synj1, dyn1, pTau, Tau, and holoAPP were normalized to β-actin levels and expressed as a percentage of the control. Absolute Aβ42, Aβ40, pTau, Tau, and ApoE concentrations were quantitatively determined by ELISA and expressed as a percentage of the control. […] Pearson correlation coefficients were calculated to determine the linear relationship between the two variables. […]

[1] = tested on: ApoE4+/+ or ApoE3+/+ knock-in (KI) mice; experiment: novel object recognition (NOR) after hippocampal AAV2 injection, ApoE KI mice; format: in vivo, mouse
Source text: Animal models. Human ApoE4^+/+ or ApoE3^+/+ knock-in (KI) mouse models without (Grootendorst J et al., Behavioural brain research 2005, Rodriguez G A et al., Learn Mem 2013, and Wang C et al., Neurobiology of disease 2005) or with 5×FAD background (Balu D et al., Neurosci Lett 2019, and Tai L M et al., J Lipid Res 2017) were genotyped (Zhong L et al., Mol Neurodegener 2016). Sex as a biological variable was taken into considerations with inclusion of both male and female mice in the experiments.
Stereotaxic injection and behavior studies. Eight to nine weeks old male and female ApoE3^+/+ and ApoE4^+/+ KI mice without 5×FAD background (N=19-23/group), or with 5×FAD background (N=15-17/group) were placed in the stereotaxic apparatus with AAV2 or scramble virus administered into the dorsal CA1 regions of bilateral hippocampal brain regions using pressure injection (Labonte B et al., Nat Med 2017, and Passini M A et al., The Journal of neuroscience 2006). Injection volumes (0.5-2.0 μl) were delivered over 10 min to avoid tissue damage. Six to nine months after viral delivery, mice were tested with the NOR task (Zhu L et al., Proc Natl Acad Sci USA 2015, Elder G A et al., J Neurotrauma 2012, and Howlett D R et al., Brain Res 2004). Mice were randomized for genotype and sex, and blinded throughout the behavior data collection and analysis, surgical manipulations, and sample collection.

holo-APP or BACE-1 = experiment: brain holo-APP and BACE-1 levels in EFAD mice after miR-195-5p over-expression; format: in vivo; settings: EFAD mouse brains
Method: as §1, §2, §3

[2] = tested on: endogenous mouse Aβ40 or Aβ42; experiment: endogenous brain Aβ40 / Aβ42 levels in ApoE KI mice after miR-195 over-expression; format: in vivo; settings: ApoE4+/+ or ApoE3+/+ mouse brains
Method: as §1, §2, §3

[3] = tested on: lysosomes of ApoE4+/+ astrocytes; experiment: lysosome size (Lysotracker, confocal) in iPSC-derived astrocytes; format: cell-based, human; settings: control 36.5 μm^2
Method: Mouse Neuronal and human iPSC culture. Primary cortical neurons were cultured (Zhu L et al., Proc Natl Acad Sci USA 2015, and Zhu L et al., J Biol Chem 2013) before being fixed and stained for confocal microscopy analysis (Zeiss LSM) (Berg I et al., Nat Protoc 2010). In some conditions, bovine serum albumin (BSA) or receptor-associated protein (RAP) was included in the cultured media (N=3/group). Alternatively, cultured neurons were transfected with adeno-associated virus 2 (AAV2)-containing miR-195-5p or miR-374 or scramble controls for 5 days before subjected to analysis. The ApoE4^+/+ and ApoE3^+/+ iPSCs were differentiated into neural progenitor cells (NPCs) by dual SMAD inhibition followed by neural rosette selection and forebrain-specific patterning by 20 ng/ml FGF2 exposure (Bowles K R et al., PloS one 2019, and Tcw J et al., Stem cell reports 2017). These NPCs were purified by MACS for CD271^−/CD133^+ (Bowles K R et al., PloS one 2019) and differentiated to cortical neurons (Bardy C et al., Proc Natl Acad Sci USA 2015, and Paquet D et al., Nature 2016) and a homogeneous population of astrocytes (Tcw J et al., Stem cell reports 2017, and Shaltouki A et al., Stem Cells 2013) before subjected to viral transfection and confocal microscopy analysis. […]

ApoE = experiment: brain ApoE levels in ApoE KI mice after miR-195 over-expression; format: in vivo; settings: ApoE4+/+ or ApoE3+/+ mouse brains
Method: as §1, §2, §3

Q: Which p-Tau (pTau, total Tau) does the source give for “UAGCAGCACAGAAAUAUUGGC (chemistry not given here) [miR-195-5p, over-expressed via AAV2-containing miR-195-5p from ABM Inc]” here?
A: reduction

Q: And the “NOR, scramble versus miR-195-5p over-expressing animals” value ([1]; ApoE3+/+ KI mice)?
A: no statistically significant differences

Q: What about the NOR preference index ([1]; ApoE4+/+ KI mice, viral delivery to bilateral hippocampi, scramble controls 42.9%) of the same sequence?
A: 61.5%

Q: And the NOR discrimination index ([1]; ApoE4+/+ KI mice, scramble controls −0.144)?
A: 0.231

Q: What about the “holo-APP or BACE-1 levels” value (holo-APP or BACE-1) of the same sequence?
A: no significant changes

Q: And the “endogenous Aβ40 or Aβ42 levels” value [2]?
A: No significant changes

Q: And the “endogenous Aβ40 or Aβ42 levels” value ([2]; listed as miR-195)?
A: no significant changes

Q: And the “average size of lysosomes (area)” value [3]?
A: no significant differences

Q: And the ApoE levels (ApoE)?
A: No significant changes

Q: What about the ApoE levels (ApoE; listed as miR-195) of the same sequence?
A: no significant changes
